{
  "source": "paper PMC5533298",
  "about": "(Structure (London, England : 1993), 2017)",
  "assay_in_all_cases": "absorbance of p-nitrophenol at […] nm",
  "type_in_all_cases": "biochemical",
  "key": {"BdGUS": {"molecular_target": "T1, BdGUS (Phocaeicola dorei, UniProt Z9QL54SLC8)", "T1 sequence (Z9QL54SLC8 25-879)": "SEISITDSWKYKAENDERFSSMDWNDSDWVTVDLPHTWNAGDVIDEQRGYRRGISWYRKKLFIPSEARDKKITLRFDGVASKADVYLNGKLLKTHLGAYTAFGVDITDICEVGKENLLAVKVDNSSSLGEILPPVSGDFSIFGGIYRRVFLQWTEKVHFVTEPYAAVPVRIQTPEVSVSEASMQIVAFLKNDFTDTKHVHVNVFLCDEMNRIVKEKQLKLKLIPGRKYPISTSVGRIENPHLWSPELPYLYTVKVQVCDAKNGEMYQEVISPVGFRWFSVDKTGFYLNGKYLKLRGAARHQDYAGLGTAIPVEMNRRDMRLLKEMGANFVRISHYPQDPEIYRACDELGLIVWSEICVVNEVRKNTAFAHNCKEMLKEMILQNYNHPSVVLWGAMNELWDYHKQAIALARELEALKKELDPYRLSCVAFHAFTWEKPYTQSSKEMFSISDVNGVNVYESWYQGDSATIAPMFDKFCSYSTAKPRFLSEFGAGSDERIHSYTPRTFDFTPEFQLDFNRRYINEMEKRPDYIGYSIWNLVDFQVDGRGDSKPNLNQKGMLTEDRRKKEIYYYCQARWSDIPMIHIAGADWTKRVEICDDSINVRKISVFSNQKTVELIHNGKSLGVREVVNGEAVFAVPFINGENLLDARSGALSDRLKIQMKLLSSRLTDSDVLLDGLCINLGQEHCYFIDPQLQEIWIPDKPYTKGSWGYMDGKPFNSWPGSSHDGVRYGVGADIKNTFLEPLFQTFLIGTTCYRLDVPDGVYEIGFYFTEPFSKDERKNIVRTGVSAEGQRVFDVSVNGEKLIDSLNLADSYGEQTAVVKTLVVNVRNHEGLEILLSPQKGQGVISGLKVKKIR", "settings": "800 uM PNPG, optimal pH, 37 C, 50 mM HEPES"}, "BfGUS": {"molecular_target": "BfGUS (Bacteroides fragilis, UniProt Q5LIC7)", "sequence (Q5LIC7 38-693)": "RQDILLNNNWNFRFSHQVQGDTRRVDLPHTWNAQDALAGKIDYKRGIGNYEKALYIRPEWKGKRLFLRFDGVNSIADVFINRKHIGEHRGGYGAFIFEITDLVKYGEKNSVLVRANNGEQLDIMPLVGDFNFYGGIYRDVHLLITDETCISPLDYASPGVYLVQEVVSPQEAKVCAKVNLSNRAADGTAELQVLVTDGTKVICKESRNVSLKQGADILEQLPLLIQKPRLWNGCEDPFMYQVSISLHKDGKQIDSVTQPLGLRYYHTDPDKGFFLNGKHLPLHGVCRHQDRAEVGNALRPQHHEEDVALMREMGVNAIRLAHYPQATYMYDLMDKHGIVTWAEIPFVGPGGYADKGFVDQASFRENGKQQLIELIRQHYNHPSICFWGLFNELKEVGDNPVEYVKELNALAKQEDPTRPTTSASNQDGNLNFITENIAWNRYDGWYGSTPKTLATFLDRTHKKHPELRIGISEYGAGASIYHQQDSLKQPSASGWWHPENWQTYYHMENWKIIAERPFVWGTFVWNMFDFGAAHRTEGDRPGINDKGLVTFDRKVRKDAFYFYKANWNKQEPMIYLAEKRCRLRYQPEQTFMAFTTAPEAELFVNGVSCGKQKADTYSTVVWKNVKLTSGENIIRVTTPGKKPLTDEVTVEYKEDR", "settings": "800 uM PNPG, optimal pH, 37 C, 50 mM HEPES"}, "PmGUS": {"molecular_target": "T2, PmGUS (Parabacteroides merdae, UniProt K5ZWV5)", "T2 sequence (K5ZWV5 20-826)": "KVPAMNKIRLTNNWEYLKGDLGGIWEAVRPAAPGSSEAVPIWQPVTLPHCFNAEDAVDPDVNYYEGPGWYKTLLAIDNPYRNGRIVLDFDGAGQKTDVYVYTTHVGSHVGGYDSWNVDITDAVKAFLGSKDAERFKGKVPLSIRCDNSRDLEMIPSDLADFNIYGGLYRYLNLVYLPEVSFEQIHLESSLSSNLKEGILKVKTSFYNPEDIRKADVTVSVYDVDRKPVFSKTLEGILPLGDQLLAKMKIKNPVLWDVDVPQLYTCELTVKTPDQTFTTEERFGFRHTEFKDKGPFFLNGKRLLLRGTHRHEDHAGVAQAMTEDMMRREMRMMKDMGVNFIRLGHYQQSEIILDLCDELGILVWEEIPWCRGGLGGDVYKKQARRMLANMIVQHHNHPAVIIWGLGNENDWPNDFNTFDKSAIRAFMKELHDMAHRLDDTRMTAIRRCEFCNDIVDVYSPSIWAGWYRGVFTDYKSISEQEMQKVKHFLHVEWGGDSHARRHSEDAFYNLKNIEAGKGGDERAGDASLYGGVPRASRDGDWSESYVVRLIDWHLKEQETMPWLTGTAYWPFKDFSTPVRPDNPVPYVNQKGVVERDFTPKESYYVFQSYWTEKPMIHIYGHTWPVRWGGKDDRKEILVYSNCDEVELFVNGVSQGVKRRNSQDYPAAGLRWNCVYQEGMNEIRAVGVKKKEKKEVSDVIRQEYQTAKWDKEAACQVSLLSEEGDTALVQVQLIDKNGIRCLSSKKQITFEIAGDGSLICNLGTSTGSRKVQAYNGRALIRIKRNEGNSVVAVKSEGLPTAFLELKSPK", "settings": "800 uM PNPG, optimal pH, 37 C, 50 mM HEPES"}, "EeGUS": {"molecular_target": "T3, EeGUS (Lachnospira eligens, UniProt C4Z6Z2)", "T3 sequence (C4Z6Z2 1-611)": "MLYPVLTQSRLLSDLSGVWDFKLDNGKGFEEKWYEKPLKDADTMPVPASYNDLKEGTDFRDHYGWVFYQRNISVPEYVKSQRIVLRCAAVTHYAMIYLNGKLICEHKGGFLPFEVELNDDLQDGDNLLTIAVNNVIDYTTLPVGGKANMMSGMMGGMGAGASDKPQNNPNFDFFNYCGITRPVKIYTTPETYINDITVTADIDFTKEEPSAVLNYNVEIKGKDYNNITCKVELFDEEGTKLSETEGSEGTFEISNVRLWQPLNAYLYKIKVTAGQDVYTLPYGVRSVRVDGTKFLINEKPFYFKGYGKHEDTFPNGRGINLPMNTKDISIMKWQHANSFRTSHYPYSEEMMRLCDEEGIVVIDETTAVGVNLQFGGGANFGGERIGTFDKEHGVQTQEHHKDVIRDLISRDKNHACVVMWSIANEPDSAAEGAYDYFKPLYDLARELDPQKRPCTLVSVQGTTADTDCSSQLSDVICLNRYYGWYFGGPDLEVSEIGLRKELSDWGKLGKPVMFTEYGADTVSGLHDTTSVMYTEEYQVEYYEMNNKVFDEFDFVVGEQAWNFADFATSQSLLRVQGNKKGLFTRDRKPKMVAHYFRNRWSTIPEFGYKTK", "settings": "800 uM PNPG, pH 6.5, 37 C, 50 mM HEPES"}, "BuGUS": {"molecular_target": "T4, BuGUS (Bacteroides uniformis, UniProt A0A078SUX9)", "T4 sequence (A0A078SUX9 32-886 limits assumed)": "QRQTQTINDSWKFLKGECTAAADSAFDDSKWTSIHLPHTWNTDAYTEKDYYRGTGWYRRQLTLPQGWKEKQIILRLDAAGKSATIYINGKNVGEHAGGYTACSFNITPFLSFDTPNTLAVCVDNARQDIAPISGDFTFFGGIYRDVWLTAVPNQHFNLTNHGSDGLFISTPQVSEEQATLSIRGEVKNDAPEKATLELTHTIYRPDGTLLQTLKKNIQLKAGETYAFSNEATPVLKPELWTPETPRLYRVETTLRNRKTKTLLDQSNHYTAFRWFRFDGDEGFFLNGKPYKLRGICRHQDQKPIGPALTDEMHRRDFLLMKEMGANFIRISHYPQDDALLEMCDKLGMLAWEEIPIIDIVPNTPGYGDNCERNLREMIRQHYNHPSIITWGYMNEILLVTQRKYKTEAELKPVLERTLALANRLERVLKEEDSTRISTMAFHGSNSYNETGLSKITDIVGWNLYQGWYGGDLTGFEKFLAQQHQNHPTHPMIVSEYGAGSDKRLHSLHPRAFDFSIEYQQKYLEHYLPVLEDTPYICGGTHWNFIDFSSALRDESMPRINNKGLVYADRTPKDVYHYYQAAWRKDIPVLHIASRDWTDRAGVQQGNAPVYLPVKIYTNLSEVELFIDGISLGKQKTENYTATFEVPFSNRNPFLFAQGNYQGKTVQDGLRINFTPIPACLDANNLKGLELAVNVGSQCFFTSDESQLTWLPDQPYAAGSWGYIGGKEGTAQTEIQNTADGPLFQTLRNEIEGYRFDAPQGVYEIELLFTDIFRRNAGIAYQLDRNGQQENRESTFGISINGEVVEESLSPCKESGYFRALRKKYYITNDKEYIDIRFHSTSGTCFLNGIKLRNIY", "settings": "800 uM PNPG, optimal pH, 37 C, 50 mM HEPES"}, "EcGUS": {"molecular_target": "EcGUS (Escherichia coli, UniProt P05804)", "sequence (P05804 whole entry)": "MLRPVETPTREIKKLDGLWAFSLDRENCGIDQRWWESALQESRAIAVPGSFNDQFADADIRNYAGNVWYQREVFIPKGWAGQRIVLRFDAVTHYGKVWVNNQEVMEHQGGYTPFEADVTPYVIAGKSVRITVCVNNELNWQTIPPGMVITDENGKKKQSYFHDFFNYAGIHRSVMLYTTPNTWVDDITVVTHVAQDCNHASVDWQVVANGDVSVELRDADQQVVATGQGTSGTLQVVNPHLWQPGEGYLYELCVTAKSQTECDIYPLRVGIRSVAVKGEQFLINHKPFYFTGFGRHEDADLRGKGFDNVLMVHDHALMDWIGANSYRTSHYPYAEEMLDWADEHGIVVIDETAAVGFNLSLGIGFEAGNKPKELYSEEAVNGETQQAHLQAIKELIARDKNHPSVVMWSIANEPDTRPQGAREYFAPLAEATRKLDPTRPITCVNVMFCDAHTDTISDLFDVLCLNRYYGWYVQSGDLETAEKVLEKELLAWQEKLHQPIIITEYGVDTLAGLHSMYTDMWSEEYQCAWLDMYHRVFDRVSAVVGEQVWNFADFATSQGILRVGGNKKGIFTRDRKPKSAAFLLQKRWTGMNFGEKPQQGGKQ", "settings": "800 uM PNPG, optimal pH (broad, up to 7.4), 37 C, 50 mM HEPES"}},
  "data": [
    {"smiles": "O=C(O)[C@H]1O[C@@H](Oc2ccc([N+](=O)[O-])cc2)[C@H](O)[C@@H](O)[C@@H]1O", "note": "[PNPG]", "values": [
      {"measurement": "absorbance of p-nitrophenol at 410 nm", "setting": "BdGUS", "result": "PNPG kinetic studies with each enzyme at its optimum pH"},
      {"measurement": "absorbance of p-nitrophenol at 410 nm", "setting": "BfGUS", "result": "PNPG kinetic studies with each enzyme at its optimum pH"},
      {"measurement": "absorbance of p-nitrophenol at 410 nm", "setting": "PmGUS", "result": "PNPG kinetic studies with each enzyme at its optimum pH"},
      {"measurement": "absorbance of p-nitrophenol at 410 nm", "setting": "EeGUS", "result": "E. coli and Eu. eligens GUS are remarkably efficient at PNPG processing"},
      {"measurement": "absorbance of p-nitrophenol at 410 nm", "setting": "BuGUS", "result": "PNPG kinetic studies with each enzyme at its optimum pH"},
      {"measurement": "absorbance of p-nitrophenol at 410 nm", "setting": "EcGUS", "result": "E. coli and Eu. eligens GUS are remarkably efficient at PNPG processing"}
    ]}
  ]
}
